Assay results as given in patent US9890117B2, “Benzamide compounds and related methods of use” (Northwestern University, priority 2012, dated 2018).

How the values were obtained:
[1] = Microsomal stability screen, human; settings: 1 μM
[2] = Microsomal stability screen, mouse; settings: 1 μM
[3] = target: T1, SIRT2 (Homo sapiens, UniProt Q8IXJ6); test: Fluor-de-Lys biochemical sirtuin deacetylation assay, SIRT2; settings: 10 μM
T1 construct: recombinant active enzymes SIRT1, SIRT2, and the catalytically active fragment of SIRT3
T1 sequence (Q8IXJ6 1-389): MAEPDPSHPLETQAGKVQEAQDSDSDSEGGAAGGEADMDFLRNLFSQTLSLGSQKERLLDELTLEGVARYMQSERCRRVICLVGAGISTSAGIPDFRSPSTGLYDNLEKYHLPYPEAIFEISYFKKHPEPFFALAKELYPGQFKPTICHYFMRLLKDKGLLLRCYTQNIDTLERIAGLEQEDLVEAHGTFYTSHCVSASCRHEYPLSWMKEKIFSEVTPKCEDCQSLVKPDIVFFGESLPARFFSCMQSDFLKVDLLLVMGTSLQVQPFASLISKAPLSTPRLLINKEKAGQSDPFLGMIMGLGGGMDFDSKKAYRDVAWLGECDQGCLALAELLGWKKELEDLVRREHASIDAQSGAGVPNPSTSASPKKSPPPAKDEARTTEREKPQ

Row | Structure (SMILES) | Mean remaining parent NADPH-free (%) [1] [%] | Mean remaining parent with NADPH (%) [1] [%] | Mean remaining parent NADPH-free (%) [2] [%] | Mean remaining parent with NADPH (%) [2] [%] | inhibition at 10 µM [3] [%] | melting point [°C]
1 | CC(=O)c1ccc(N(C)S(=O)(=O)c2cccc(C(=O)Nc3ccc(Cl)cn3)c2)cc1 [Compound 103, 3-(N-(4-Acetylphenyl)-N-methylsulfamoyl)-N-(5-chloropyridin-2-yl)benzamide] | 82 | 12 | 91 | 0 |  | 
2 | CN(c1ccc(Cl)cc1)S(=O)(=O)c1cccc(C(=O)Nc2ccc(C#N)cn2)c1 [Compound 71, 3-(N-(4-Chlorophenyl)-N-methylsulfamoyl)-N-(5-cyanopyridin-2-yl)benzamide] | 91 | 2 | 96 | 1 |  | 
3 | CC(=O)c1ccc(N(C)S(=O)(=O)c2cccc(C(=O)Nc3ccc(Cl)cc3)c2)cc1 [Compound 102, 3-(N-(4-Acetylphenyl)-N-methylsulfamoyl)-N-(4-chlorophenyl)benzamide] | 94 | 12 | 108 | 0 |  | 
4 | CN(c1ccc([S+](C)[O-])cc1)S(=O)(=O)c1cccc(C(=O)Nc2ccc(C#N)cc2F)c1 (centres unmarked) [Compound 203Aj, N-(4-cyano-2-fluorophenyl)-3-(N-methyl-N-(4-(methylsulfinyl)phenyl)sulfamoyl)-benzamide] |  |  |  |  | 10 | 192 to 194
5 | CSc1ccc(CSc2cccc(C(=O)Nc3ccc(Cl)cn3)c2)cc1 [Compound 211b, N-(5-chloropyridin-2-yl)-3-((4-(methylthio)benzyl)thio)benzamide] |  |  |  |  | 42 | 159 to 161
6 | CN(c1ccc(S(C)(=O)=O)cc1)S(=O)(=O)c1cccc(NC(=O)c2ccc([S+](C)[O-])cc2)c1 (centres unmarked) [Compound 207c, N-(3-(N-methyl-N-(4-(methylsulfonyl)phenyl)sulfamoyl)phenyl)-4-(methylsulfinyl)benzamide] |  |  |  |  | 47 | 184 to 186
7 | N#Cc1ccc(NC(=O)c2cccc(S(=O)(=O)N(c3ccc(Cl)cc3)C3CC3)c2)cc1 [Compound 203Av, 3-(N-(4-chlorophenyl)-N-cyclopropylsulfamoyl)-N-(4-cyanophenyl)benzamide] |  |  |  |  | 51 | 180 to 182
8 | CN(c1ccc(Cl)cc1)S(=O)(=O)c1cccc(NC(=O)c2ccc(Br)cc2)c1 [Compound 207a, 4-bromo-N-(3-(N-(4-chlorophenyl)-N-methylsulfamoyl)phenyl)benzamide] |  |  |  |  | 28 | 187 to 189
9 | CN(C(=O)c1cccc(S(=O)(=O)N(C)c2ccc([S+](C)[O-])cc2)c1)c1ccc(Cl)cc1F (centres unmarked) [Compound 203Ag, N-(4-chloro-2-fluorophenyl)-N-methyl-3-(N-methyl-N-(4-(methylsulfinyl)phenyl)-sulfamoyl)benzamide] |  |  |  |  | 14 | 104 to 106
10 | CCCN(CCC)S(=O)(=O)c1cccc(C(=O)Nc2cccc([N+](=O)[O-])c2)c1 [Compound 203h, 3-(N,N-dipropylsulfamoyl)-N-(3-nitrophenyl)benzamide] |  |  |  |  | 50 | 126 to 128
11 | CN(c1ccc(Cl)cc1)S(=O)(=O)c1cccc(C(=O)Nc2ccc(Cl)cc2C#N)c1 [Compound 203x, N-(4-chloro-2-cyanophenyl)-3-(N-(4-chlorophenyl)-N-methylsulfamoyl)benzamide] |  |  |  |  | 15 | 157 to 158
12 | CCCN(CCC)S(=O)(=O)c1cccc(C(=O)Nc2ccc(Br)cc2C)c1 [Compound 203c, N-(4-bromo-2-methylphenyl)-3-(N,N-dipropylsulfamoyl)benzamide] |  |  |  |  | 0 | 135 to 136
13 | Cc1cc(F)ccc1NC(=O)c1cccc(S(=O)(=O)N(C)c2ccc(Br)cc2)c1 [Compound 203o, 3-(N-(4-bromophenyl)-N-methylsulfamoyl)-N-(4-fluoro-2-methylphenyl)benzamide] |  |  |  |  | 14 | 163 to 165
14 | CN(C(=O)c1cccc(S(=O)(=O)N(C)c2ccc(S(C)(=O)=O)cc2)c1)c1ccc(C#N)cc1F [Compound 203Ak, N-(4-cyano-2-fluorophenyl)-N-methyl-3-(N-methyl-N-(4-(methylsulfonyl)phenyl)-sulfamoyl)benzamide] |  |  |  |  | 0 | 156 to 157

More lines, now with the values ahead:

Row | Mean remaining parent NADPH-free (%) [1] [%] | Mean remaining parent with NADPH (%) [1] [%] | Mean remaining parent NADPH-free (%) [2] [%] | Mean remaining parent with NADPH (%) [2] [%] | inhibition at 10 µM [3] [%] | melting point [°C] | Structure (SMILES)
15 | 89 | 16 |  |  |  |  | CN(c1ccc(F)cc1)S(=O)(=O)c1cccc(C(=O)Nc2ccc(C#N)cc2)c1 [Compound 47, N-(4-Cyanophenyl)-3-(N-(4-fluorophenyl)-N-methylsulfamoyl)benzamide]
16 |  |  |  |  | 68 | 201 to 203 | COc1ccc(CSc2cc(C(=O)Nc3ccc(C#N)cc3)ccn2)cc1 [Compound 211f, N-(4-cyanophenyl)-2-((4-methoxybenzyl)thio)isonicotinamide]
17 |  |  |  |  | 58 | 142 to 143 | N#Cc1ccc(NC(=O)c2cccc(OCc3cccc(F)c3)c2)cc1 [Compound 216Ad, N-(4-cyanophenyl)-3-((3-fluorobenzyl)oxy)benzamide]
18 |  |  |  |  | 36 | 173 to 174 | COc1ccc(COc2cccc(C(=O)Nc3ccc(S(C)(=O)=O)cc3)c2)cc1 [Compound 216f, 3-((4-methoxybenzyl)oxy)-N-(4-(methylsulfonyl)phenyl)benzamide]
19 |  |  |  |  | 12 | 179 to 181 | CC(O)c1ccc(C(C)Oc2cncc(C(=O)Nc3ccc(C#N)cc3)c2)cc1 (centres unmarked) [Compound 216Af, N-(4-cyanophenyl)-5-(1-(4-(1-hydroxyethyl)phenyl)ethoxy)nicotinamide]
20 |  |  |  |  | 46 | 163 to 164 | COc1ccc(CSc2cccc(C(=O)Nc3ccc(C#N)cn3)c2)cc1 [Compound 211d, N-(5-cyanopyridin-2-yl)-3-((4-methoxybenzyl)thio)benzamide]
21 |  |  |  |  | 56 | 149 to 150 | N#Cc1ccc(NC(=O)c2cccc(OCc3cccc(F)c3F)c2)cc1 [Compound 216Aa, N-(4-cyanophenyl)-3-((2,3-difluorobenzyl)oxy)benzamide]
22 |  |  |  |  | 15 | 170 to 171 | N#Cc1ccc(NC(=O)c2cccc(OCc3ccc(F)cc3)c2)nc1 [Compound 216i, N-(5-cyanopyridin-2-yl)-3-((4-fluorobenzyl)oxy)benzamide]
